Measured values: ChEMBL document CHEMBL3769367, “Orexin Receptor Antagonists: New Therapeutic Agents for the Treatment of Insomnia” (J Med Chem, 2016)

Assays:
[1] = Plasma protein binding in human; assay type: ADME, cell-free; details: read-out: PPB (converted)
Canis familiaris = assay: Effect on sleep parameter in po dosed Beagle dog by EEG analysis; assay type: functional, Canis lupus familiaris
[2] = Plasma protein binding in Wistar rat; assay type: ADME, cell-free; details: read-out: PPB (converted)
[3] = Ratio of drug level in brain to plasma in Wistar rat; assay type: ADME, cell-free; details: read-out: BPR
[4] = Tmax in human at 1 to 1500 mg, po administered as single dose; assay type: ADME, organism-based; details: in vivo
[5] = Clearance in Beagle dog 1 mg/kg, iv; assay type: ADME, organism-based, Canis lupus familiaris; details: in vivo
[6] = Plasma protein binding in Beagle dog; assay type: ADME, cell-free, Canis lupus familiaris; details: read-out: PPB (converted)
[7] = Half life in Wistar rat at 1 mg/kg, iv; assay type: ADME, organism-based; details: in vivo
[8] = Oral bioavailability in Beagle dog at 3 mg/kg; assay type: ADME, organism-based, Canis lupus familiaris; details: in vivo
[9] = Clearance in Wistar rat at 1 mg/kg, iv; assay type: ADME, organism-based; details: in vivo
Rattus norvegicus = assay: Effect on sleep parameter in po dosed Wistar rat by EEG analysis; assay type: functional
[10] = Half life in human plasma at 1 to 1500 mg, po administered as single dose; assay type: ADME, organism-based
[11] = Oral bioavailability in Wistar rat at 10 mg/kg; assay type: ADME, organism-based; details: in vivo
[12] = Half life in Beagle dog 1 mg/kg, iv; assay type: ADME, organism-based, Canis lupus familiaris; details: in vivo

fraction unbound [1]: 0.007
fraction unbound [2]: 0.007
Kp [3]: 0.46
Tmax [4]: 1.5 h
clearance [5]: 11 mL/min/kg
fraction unbound [6]: 0.011
half-life [7]: 1.9 h
bioavailability [8]: 52%
clearance [9]: 29 mL/min/kg
half-life [10]: 10 h
bioavailability [11]: 39%
half-life [12]: 1.7 h
SMILES: COc1ccc(S(=O)(=O)N2CCC[C@H]2C(=O)Nc2cc(C)cc(C)c2)cc1 [ACT-462206]
Activity (Canis familiaris): 100 mg/kg
Activity (Rattus norvegicus): 100 mg/kg
